Source: patent US11857596B2, “Animal feed additive and animal feed” (priority 2018, dated 2024)
In brackets after ≈: the same amount, converted by molar mass. Read-outs that look alike come from different tables or passages of the source.

Experiments:
[1] = system: Caco-2 cells (human intestinal epithelial cells); experiment: Membrane strengthening experiment (TER recovery of barrier function after TNF-α); type: cell-based; conditions: for function of strengthening the barrier function (membrane-strengthening ability): result in words, FIG. 1A-1H
[2] = Chicken growth test (body weight gain and feed conversion ratio); type: in vivo, broiler chickens; conditions: for BWG / FCR: 0-3 weeks; for body weight gain effect and feed conversion ratio improvement effect: result in words, healthy broilers, 0 to 21 days of age
[3] = system: Lactobacillus acidophilus AJ13778; experiment: Minimum inhibitory concentration, spot-on-lawn method; type: cell-based; conditions: indicator strain Lactobacillus acidophilus AJ13778, MRS, 37° C.
[4] = system: Lactobacillus salivarius AJ110152; experiment: as above; type: cell-based; conditions: indicator strain Lactobacillus salivarius AJ110152, MRS, 37° C.
[5] = system: Clostridium perfringens AJ3350; experiment: microbe, parasite or virus in culture; type: cell-based
[6] = system: Enterococcus faecalis AJ110149; experiment: Minimum inhibitory concentration, spot-on-lawn method; type: cell-based; conditions: indicator strain Enterococcus faecalis AJ110149, MRS, 30° C., ND = no effect detected
[7] = system: Escherichia coli MG1665; experiment: as above; type: cell-based
[8] = system: Bacteroides fragilis JCM11019; experiment: as above; type: cell-based; conditions: indicator strain Bacteroides fragilis JCM11019, GAM, 37° C.
[9] = system: Bifidobacterium thermophilum AJ110569; experiment: as above; type: cell-based; conditions: indicator strain Bifidobacterium thermophilum AJ110569, GAM, 37° C.
[10] = system: Salmonella enterica AJ2785; experiment: microbe, parasite or virus in culture; type: cell-based
[11] = Metabolome analysis of intestinal tract contents and blood; type: in vivo, chickens
Excerpt: It is thus considered that coated-Phe and coated-Tyr are assimilated by intestinal bacteria in feces and rapidly metabolized in blood.

[12] = system: Salmonella enterica (SE); experiment: Salmonella infection test in chickens (body weight gain and feed conversion ratio); type: in vivo, chickens (broilers); conditions: for BWG / FCR: 0-3 week, SE orally at 2 days of age
Method: The coated-Tyr and Tyr prepared in the same manner as in Example 2-1 were added to the feed matrix having the composition presented in Table 2 so that the amount of the core material was 200 ppm, to thereby prepare a feed. Broilers at 1 day of age were introduced into a breeding facility for infection test (6 broilers/repeat and 2 repeats/test group), then Salmonella enterica (SE) was orally administered to the broilers at 2 days of age, and the test feed was fed for 21 days to evaluate the body weight gain effect and feed conversion ratio of chickens. Note that a conventional antimicrobial growth promoter, enramycin, was used as a positive control. As enramycin, a commercially available product (“Enramycin F-80” manufactured by Scientific Feed Laboratory Co., Ltd., uncoated) was used as it was.
The results are presented with a negative control of 100. […]
Broilers at 0 days of age were introduced into a breeding facility for infection test (6 broilers/repeat and 2 repeats/test group), then Salmonella enterica (SE) was orally administered to the broilers at 2 days of age, and the test feed was fed for 21 days to evaluate the body weight gain effect and feed conversion ratio. Note that a conventional antimicrobial growth promoter, enramycin, was used as a positive control. As enramycin, a commercially available product (“Enramycin F-80” manufactured by Scientific Feed Laboratory Co., Ltd., uncoated) was used as it was.

[13] = system: Clostridium perfringens; type: cell-based; set-up: key: “+” to “+++++”: indicates the strength of antibacterial effect. The more “+”, the stronger the effect.; “+” to “+++++”: indicates the strength of antibacterial effect. The more “+”, the stronger the effect.; “+” to “+++++”: indicates the strength of antibacterial effect. The more “+”, the stronger the effect.; “+” to “+++++”: indicates the strength of antibacterial effect. The more “+”, the stronger the effect.; “+” to “+++++”: indicates the strength of antibacterial effect. The more “+”, the stronger the effect.; “ND”: indicates no effect detected (not detected); conditions: Nisin A and Duramycin 1 mg/ml, others 10-fold concentrated culture supernatant of producers
[14] = system: Lactobacillus acidophilus; experiment: Antibacterial spectrum of bacteriocin, spot-on lawn method; type: cell-based; set-up: key: “+” to “+++++”: indicates the strength of antibacterial effect. The more “+”, the stronger the effect.; “+” to “+++++”: indicates the strength of antibacterial effect. The more “+”, the stronger the effect.; “+” to “+++++”: indicates the strength of antibacterial effect. The more “+”, the stronger the effect.; “+” to “+++++”: indicates the strength of antibacterial effect. The more “+”, the stronger the effect.; “+” to “+++++”: indicates the strength of antibacterial effect. The more “+”, the stronger the effect.; “ND”: indicates no effect detected (not detected); conditions: Nisin A and Duramycin 1 mg/ml, others 10-fold concentrated culture supernatant of producers
[15] = system: Bifidobacterium thermophilum AJ110569; experiment: as above; type: cell-based; set-up: key: “+” to “+++++”: indicates the strength of antibacterial effect. The more “+”, the stronger the effect.; “+” to “+++++”: indicates the strength of antibacterial effect. The more “+”, the stronger the effect.; “+” to “+++++”: indicates the strength of antibacterial effect. The more “+”, the stronger the effect.; “+” to “+++++”: indicates the strength of antibacterial effect. The more “+”, the stronger the effect.; “+” to “+++++”: indicates the strength of antibacterial effect. The more “+”, the stronger the effect.; “ND”: indicates no effect detected (not detected); conditions: Nisin A and Duramycin 1 mg/ml, others 10-fold concentrated culture supernatant of producers
[16] = system: Bacteroides fragilis JCM11019; experiment: as above; type: cell-based; set-up: key: “+” to “+++++”: indicates the strength of antibacterial effect. The more “+”, the stronger the effect.; “+” to “+++++”: indicates the strength of antibacterial effect. The more “+”, the stronger the effect.; “+” to “+++++”: indicates the strength of antibacterial effect. The more “+”, the stronger the effect.; “+” to “+++++”: indicates the strength of antibacterial effect. The more “+”, the stronger the effect.; “+” to “+++++”: indicates the strength of antibacterial effect. The more “+”, the stronger the effect.; “ND”: indicates no effect detected (not detected); conditions: Nisin A and Duramycin 1 mg/ml, others 10-fold concentrated culture supernatant of producers
[17] = system: Salmonella enterica (SE); experiment: Salmonella infection test in chickens (body weight gain and feed conversion ratio); type: in vivo, chickens (broilers); conditions: Table 5; 0-3 week; addition 10 ppm; SE orally at 2 days of age; negative control = 100
[18] = material conc. 10 uM, comparison value with Ctr (TNFα alone), 24 h, 1.1 or more = membrane-strengthening ability
[19] = Table 3, addition 10 ppm in feed, negative control = 100
[20] = Table 4, addition 10 ppm in feed
[21] = Table 6, addition 10 ppm, NC = 100%, listed as PC1 (W/Avilamycin)
[22] = Table 6, addition 10 ppm, NC = 100%, listed as PC2 (W/Avilamycin)
[23] = indicator strain Clostridium perfringens AJ3350, GAM, 37° C.
[24] = indicator strain Escherichia coli MG1665, LB, 37° C.
[25] = Table 4, addition 200 ppm (core material) in feed
[26] = read-out: Minimum inhibitory concentration
[27] = Table 5, addition 200 ppm, negative control = 100
[28] = material conc. 1 uM, TER barrier function recovery, 24 h
[29] = material conc. 1 uM, comparison value with Ctr (TNFα alone), 24 h
[30] = Table 8, 10 ppm, control group = 100%

COC[C@H]1O[C@@H](OC2OC[C@@H]3O[C@]4(O[C@H]3[C@H]2OC(=O)C(C)C)O[C@H](C)[C@@](O)(C(C)=O)[C@@H]2OCO[C@H]24)[C@@H](OC)[C@@H](O)[C@@H]1O[C@@H]1O[C@H](C)[C@H](OC)[C@H](O[C@H]2C[C@@]3(C)OC4(C[C@@H](O)[C@H](O[C@H]5C[C@@H](O)[C@H](OC(=O)c6c(C)c(Cl)c(O)c(Cl)c6OC)[C@@H](C)O5)[C@@H](C)O4)O[C@@H]3[C@@H](C)O2)[C@H]1O (some centres unmarked) [Avilamycin, avilamycin]
Recovery ratio (%) ([1]; material conc. 10 uM, TER barrier function recovery, 24 h): 127% | Recovery ratio/ctr [1, 18]: 1.10 | function of strengthening the barrier function (membrane-strengthening ability) [1]: had a function of strengthening the barrier function even at a low concentration | BWG [2, 19]: 110% | FCR [2, 19]: 96% | BWG [2, 20]: 107% | FCR [2, 20]: 95% | BWG [2, 21]: 104% | FCR [2, 21]: 97% | BWG [2, 22]: 107% | FCR [2, 22]: 94% | Minimum inhibitory concentration [3]: 16000 µg/mL (≈ 11.4 mM) | Minimum inhibitory concentration [4]: 8000 µg/mL (≈ 5.7 mM) | Minimum inhibitory concentration [5, 23]: 1000 µg/mL (≈ 0.712 mM) | Minimum inhibitory concentration [6]: 2000 µg/mL (≈ 1.42 mM) | Minimum inhibitory concentration [7, 24]: >100000 µg/mL | Minimum inhibitory concentration [8]: 8000 µg/mL (≈ 5.7 mM) | Minimum inhibitory concentration [9]: 16000 µg/mL (≈ 11.4 mM) | Minimum inhibitory concentration [10]: >100000 µg/mL

N[C@@H](Cc1ccccc1)C(=O)O [Phe, phenylalanine]
BWG [2, 25]: 106% | FCR [2, 25]: 98% | body weight gain effect and feed conversion ratio improvement effect [2]: A certain degree of body weight gain effect was confirmed | detection in the intestinal tract contents or blood ([11]; in vivo): not detected

CC[C@H]1OC(=O)C[C@@H](O)[C@H](C)[C@@H](O[C@@H]2O[C@H](C)[C@@H](O[C@H]3C[C@@](C)(O)[C@@H](O)[C@H](C)O3)[C@H](N(C)C)[C@H]2O)[C@@H](CC=O)C[C@@H](C)C(=O)/C=C/C(C)=C/[C@@H]1CO[C@@H]1O[C@H](C)[C@@H](O)[C@@H](OC)[C@H]1OC [Tylosin]
activity at 10 µM ([1]; Homo sapiens, Caco-2, material conc. 10 uM, TER barrier function recovery, 24 h, read-out: Recovery ratio (%)): 135% | Recovery ratio/ctr [1, 18]: 1.17 | MIC [3, 26]: 1000 µg/mL (≈ 1.09 mM) | MIC ([4]; Ligilactobacillus salivarius, read-out: Minimum inhibitory concentration): 1000 µg/mL (≈ 1.09 mM) | MIC ([5]; Clostridium perfringens, AJ3350, read-out: Minimum inhibitory concentration): 4000 µg/mL (≈ 4.37 mM) | MIC [6, 26]: 4000 µg/mL (≈ 4.37 mM) | MIC ([7]; indicator strain Escherichia coli MG1665, LB, 37° C., read-out: Minimum inhibitory concentration): > 100000 µg/mL | MIC [8, 26]: 4000 µg/mL (≈ 4.37 mM) | MIC [9, 26]: 10 µg/mL (≈ 0.0109 mM) | MIC ([10]; Salmonella enterica, AJ2785, read-out: Minimum inhibitory concentration): > 100000 µg/mL

N[C@@H](Cc1ccc(O)cc1)C(=O)O [Tyrosin, tyrosine]
Recovery ratio/ctr ([1]; 24 h, 20 µM): 1.19 | activity at 20 µM ([1]; Homo sapiens, Caco-2, material conc. 20 uM, TER barrier function recovery, 24 h, read-out: Recovery ratio (%)): 138% | function of strengthening the barrier function (membrane-strengthening ability) [1]: observed to have the function of strengthening the barrier function | BWG [2, 25]: 104% | FCR [2, 25]: 98% | body weight gain effect and feed conversion ratio improvement effect [2]: A certain degree of body weight gain effect was confirmed | BWG [12, 27]: 96% | FCR [12, 27]: 100% | body weight gain effect and feed conversion ratio improvement effect ([12]; result in words, Salmonella enterica infected broilers, test feed 21 days): no effect | detection in the intestinal tract contents or blood ([11]; metabolome analysis, chicken growth test of 2-3): not detected

Colistin
Recovery ratio (%) [1, 28]: 130% | Recovery ratio/ctr [1, 29]: 1.13 | function of strengthening the barrier function (membrane-strengthening ability) [1]: had a function of strengthening the barrier function even at a low concentration | Minimum inhibitory concentration [3]: >100000 µg/mL | Minimum inhibitory concentration [4]: >100000 µg/mL | Minimum inhibitory concentration [5, 23]: >100000 µg/mL | Minimum inhibitory concentration [6]: >100000 µg/mL | Minimum inhibitory concentration [7, 24]: 4000 µg/mL | Minimum inhibitory concentration [8]: >100000 µg/mL | Minimum inhibitory concentration [9]: 128000 µg/mL | Minimum inhibitory concentration [10]: >100000 µg/mL

duramycin
Recovery ratio (%) [1, 28]: 120% | Recovery ratio/ctr [1, 29]: 1.04 | Antibacterial spectrum (strength of antibacterial effect) [13]: +++++ | Antibacterial spectrum (strength of antibacterial effect) [14]: + | Antibacterial spectrum (strength of antibacterial effect) [15]: ++ | Antibacterial spectrum (strength of antibacterial effect) [16]: +

enramycin
Recovery ratio (%) ([1]; material conc. 100 uM, TER barrier function recovery, 24 h): 144% | Recovery ratio/ctr ([1]; material conc. 100 uM, comparison value with Ctr (TNFα alone), 24 h): 1.28 | BWG [12, 30]: 107% | FCR [12, 30]: 98% | Minimum inhibitory concentration [3]: 500 µg/mL | Minimum inhibitory concentration [4]: 500 µg/mL | Minimum inhibitory concentration [5]: 1000 µg/mL | Minimum inhibitory concentration [6]: 4000 µg/mL | Minimum inhibitory concentration [7]: >100000 µg/mL | Minimum inhibitory concentration [8]: 64000 µg/mL | Minimum inhibitory concentration [9]: 500 µg/mL | Minimum inhibitory concentration [10]: >100000 µg/mL | BWG [17]: 107% | FCR [17]: 98%
